# Laboratory results from US7150972B2, “Sterol carrier protein-2 from the mosquito, Aedes aegypti” (Wisconsin Alumni Research Foundation, priority 2003, dated 2006).
# Values joined by “and” are separate entries in the source; they are usually repeats but may differ in a detail not shown here. Identical values can stand only once.
# How the values were obtained:
# AeSCP-2 gene expression = assay: In vitro tissue culture of 4th instar gut and carcass with 20E; dot blotting and western blotting; assay type: cell-based, Aedes aegypti
# Description: To investigate whether ecdysteroids affect AeSCP-2 expression, 12 hour-old 4th instars were dissected to separate the head, gut, and carcass. Gut and carcass were cultured in the same dish with and without 20E (60 ng/ml) for 6 hours. […] As expected, at the protein level AeSCP-2 increased in 20E-treated gut tissue cultures (FIG. 7A, inset, lane 5).
# Northern and dot blotting analysis—Fifteen to twenty microgram of total RNA from indicated stages was used in Northern blotting analysis as described (Ausubel et al., 1993). After electrophoresis, RNAs in the formaldehyde-agarose gel was blotted onto positively charged Nylon membrane (Millipore, Bedford, Mass.). For dot blotting analysis, 5 ug of total RNA from three parallel samples (10 larvae per sample) of each developmental time point were blotted on to positively charged Nylon membrane as described (Millipore). The membranes were baked at 80° C. under vacuum for 1 hour and UV cross-linked (Stratagene Cloning system, La Jolla, Calif.).
# Western blotting analysis—Intact animals, dissected tissues and cultured tissues were homogenized in lysis buffer (0.25M TRIS®HCl (hydroxymethyl aminomethane hydrochloride), pH 8.0/0.2% TRITON®X-100 (octyl phenol ethoxylate) 1 mM dithioerythritol/5 mM EDTA/10 mM β-mercaptoethanol/1 mM phenylmethylsulfonyl fluoride/protease inhibitor cocktail (Sigma)), and centrifuged at 12000×g at 4° C. for 15 minutes. Supernatants containing solvable proteins were stored at −80° C. Protein concentrations were determined using a BCA kit (Pierce, Rockford, Ill.). […]
# In vitro tissue culture—Staged 4th instars were dissected in insect saline (Riddiford et al., 1979) to obtain gut and carcass for in vitro tissue culture study. […] Pure 20-hydroxyecdysone (Sigma) was dissolved in 95% ethanol, and the concentration was determined by UV spectrum absorption analysis at 243 nm wavelength (20E mg/ml=(OD 243×480)/ε and the ε=12,670). […] Total RNA was extracted from cultured tissues and analyzed by Dot blotting. […] Soluble proteins were extracted from cultured tissues and analyzed by western blotting.
# SCP-2 = details: vertebrate SCP-2, Gallegos et al., 2001; read-out: Kd values of SCP-2 cholesterol-binding; cited from earlier work
# recombinant AeSCP-2 = recombinant AeSCP-2 (Aedes aegypti, UniProt Q86PR3); assay: Radiolabeled cholesterol binding assay (Lipidex-1000), Scatchard plot; details: [3H]cholesterol, rAeSCP-2 8 pM per assay, 4° C. overnight, N=6
# Source text: Whether AeSCP-2 binds cholesterol with high affinity was examined using radiolabeled cholesterol and recombinant AeSCP-2 (rAeSCP-2). Lipidex-1000 has been used for studying lipid/sterol binding proteins over decades and is proven to be a reliable assay (Glatz and Veerkamp, 1983; Colles et al., 1995). The recombinant protein was purified as GST-tagged fusion protein (FIG. 5, lanes 2 and 5) on the GST affinity column and the GST-tag was removed using Thrombin (FIG. 5, lane 4). After 16-hour Thrombin digest, there was still considerable amount of uncut fusion proteins (FIG. 5, lane 5) that may be resulted from insufficient concentration of Thrombin in the column (400 units/10 ml column). Further digest with increased level of Thrombin did completely remove the GST tag (data not shown). To optimize the condition for binding assay, varied concentrations of rAeSCP-2 was tested with 0.07 to 0.1 pM of radiolabeled cholesterol per assay. […]
# Radiolabeled cholesterol binding assay—The binding of radiolabeled cholesterol to AeSCP-2 was measured based on the Lipidex-1000 assay (Glatz and Veerkamp, 1983) optimized for AeSCP-2. […]
# Standard cholesterol solution was made from pure cholesterol (Sigma) in 95% ethanol at concentrations 0.04 nM to 20 uM. […] The slope=−Ka and Kd was calculated as […].
Structure (SMILES),"increase of AeSCP-2 mRNA level in cultured carcass (AeSCP-2 gene expression; 20E 60 ng/ml, 6 hours, carcass of 12 hour-old 4th instars)","increase of AeSCP-2 mRNA level in cultured gut (AeSCP-2 gene expression; 20E 60 ng/ml, 6 hours, gut of 12 hour-old 4th instars)","AeSCP-2 protein level in gut tissue cultures (AeSCP-2 gene expression; 20E-treated gut, western blot, FIG. 7 inset lane 5)",Kd (SCP-2),Kd (recombinant AeSCP-2)
"CC(C)(O)CC[C@@H](O)[C@](C)(O)[C@H]1CC[C@@]2(O)C3=CC(=O)[C@@H]4C[C@@H](O)[C@@H](O)C[C@]4(C)[C@H]3CC[C@]12C [20E, 20-hydroxyecdysone]",not in the carcass,2 fold,increased,,
CC(C)CCC[C@@H](C)[C@H]1CC[C@H]2[C@@H]3CC=C4C[C@@H](O)CC[C@]4(C)[C@H]3CC[C@]12C [cholesterol],,,,4 to 2600 nM,5.5 nM and 5.6 nM
